In ChEMBL document CHEMBL5352398 (Eur J Med Chem, 2022):
The source made the active and inactive calls. No cut-off for these calls is given here.

Columns and labels:
[1] = Toxicity in Kunming mouse assessed as inflammatory infiltration in liver at 50 mg/kg, po administered and measured after 14 days by HE staining; assay type: organism-based; conditions: in vivo, 336 h, time 14 day
[2] = MRT (0 to infinity) in Sprague-Dawley rat at 5 mg/kg, po and measured upto 24 hrs by LC-MS/MS analysis; assay type: ADME, organism-based; conditions: in vivo
[3] = Toxicity in Kunming mouse assessed as appearance of normal glomerulus cells in kidney at 50 mg/kg, po administered and measured after 14 days by HE staining; assay type: organism-based; conditions: in vivo, 336 h, time 14 day
[4] = Tmax in Sprague-Dawley rat at 5 mg/kg, iv and measured upto 24 hrs by LC-MS/MS analysis; assay type: ADME, organism-based; conditions: in vivo
[5] = Half life in Sprague-Dawley rat at 5 mg/kg, po and measured upto 24 hrs by LC-MS/MS analysis; assay type: ADME, organism-based; conditions: in vivo
[6] = Hepatotoxicity in Kunming mouse assessed as increase in AST level in serum at 50 mg/kg,po for 14 days in presence of BSO; assay type: toxicity, organism-based; conditions: in vivo, 336 h, time 14 day
[7] = MRT (0 to infinity) in Sprague-Dawley rat at 5 mg/kg, iv and measured upto 24 hrs by LC-MS/MS analysis; assay type: ADME, organism-based; conditions: in vivo
[8] = Toxicity in Kunming mouse assessed as dilated vacuolization in liver at 50 mg/kg, po and measured after 14 days by HE staining based microscopy; assay type: organism-based; conditions: in vivo, 336 h, time 14 day
[9] = Cytotoxicity against human HK-2 cells assessed as inhibition of cell growth at 400 uM incubated for 72 hrs by MTT assay relative to control; assay type: toxicity, cell-based
[10] = target: T1, Solute carrier family 2, facilitated glucose transporter member 9 (Mus musculus, UniProt Q3T9X0); assay: Inhibition of mouse GLUT9 transfected in human HEK293 cells assessed as inhibition of uric acid induced current by cell patch-clamp assay; assay type: cell-based
T1 sequence (Q3T9X0 whole entry): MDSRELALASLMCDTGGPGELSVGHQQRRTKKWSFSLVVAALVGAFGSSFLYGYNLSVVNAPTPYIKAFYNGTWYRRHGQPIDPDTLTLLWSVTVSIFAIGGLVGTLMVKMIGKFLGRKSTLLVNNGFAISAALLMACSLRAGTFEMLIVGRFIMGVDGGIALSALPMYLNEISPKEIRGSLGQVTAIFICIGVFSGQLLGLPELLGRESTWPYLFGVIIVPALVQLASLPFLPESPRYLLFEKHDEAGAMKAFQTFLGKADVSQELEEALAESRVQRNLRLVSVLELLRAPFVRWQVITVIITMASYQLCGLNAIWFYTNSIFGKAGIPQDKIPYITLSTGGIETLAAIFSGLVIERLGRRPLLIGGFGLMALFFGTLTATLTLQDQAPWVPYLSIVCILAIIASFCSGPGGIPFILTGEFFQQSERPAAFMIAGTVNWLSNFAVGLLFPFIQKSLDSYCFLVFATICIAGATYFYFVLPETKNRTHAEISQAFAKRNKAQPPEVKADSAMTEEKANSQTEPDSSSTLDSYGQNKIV

[11] = system: Mus musculus; assay: Anti-hyperuricemic activity against potassium oxonate induced hyperuricemia in Kunming mouse model assessed as decrease in serum urate level at 2 mg/kg, po and measured after 3 hrs; assay type: functional, organism-based
[12] = Toxicity in Kunming mouse assessed as inflammatory infiltration in kidney at 50 mg/kg, po administered and measured after 14 days by HE staining; assay type: organism-based; conditions: in vivo, 336 h, time 14 day
[13] = system: HepG2; assay: Cytotoxicity against human HepG2 cells assessed as reduction in cell viability upto 400 uM incubated for 24 hrs by MTT assay; assay type: toxicity, cell-based; conditions: hepg2, 24 h
[14] = Hepatotoxicity in Kunming mouse assessed as reduction in serum GSH level at 50 mg/kg, ip and incubated for 12 hrs; assay type: toxicity, organism-based; conditions: in vivo
[15] = Toxicity in Kunming mouse assessed as appearance of normal tubular structure in kidney at 50 mg/kg, po administered and measured after 14 days by HE staining; assay type: organism-based; conditions: in vivo, 336 h, time 14 day
[16] = Toxicity in Kunming mouse assessed as mild inflammatory infiltration in liver at 50 mg/kg, po and measured after 14 days by HE staining based microscopy; assay type: organism-based; conditions: in vivo, 336 h, time 14 day
[17] = Cmax in Sprague-Dawley rat at 5 mg/kg, iv and measured upto 24 hrs by LC-MS/MS analysis; assay type: ADME, organism-based; parameters: time < 24 hrs, dose 5 mg/kg, route iv; conditions: in vivo
[18] = Subacute toxicity in Kunming mouse assessed as clonic convulsion at 50 mg/kg,po for 14 days; assay type: organism-based; conditions: in vivo, 336 h, time 14 day
[19] = AUC(0 to infinity) in Sprague-Dawley rat at 5 mg/kg, po and measured upto 24 hrs by LC-MS/MS analysis; assay type: ADME, organism-based; parameters: time < 24 hrs, dose 5 mg/kg, route po; conditions: in vivo
[20] = Subacute toxicity in Kunming mouse assessed as lethargy at 50 mg/kg,po for 14 days; assay type: organism-based; conditions: in vivo, 336 h, time 14 day
[21] = Cmax in Sprague-Dawley rat at 5 mg/kg, po and measured upto 24 hrs by LC-MS/MS analysis; assay type: ADME, organism-based; parameters: dose 5 mg/kg, time < 24 hrs, route po; conditions: in vivo
[22] = AUC(0 to infinity) in Sprague-Dawley rat at 5 mg/kg, iv and measured upto 24 hrs by LC-MS/MS analysis; assay type: ADME, organism-based; parameters: dose 5 mg/kg, time < 24 hrs, route iv; conditions: in vivo
[23] = Subacute toxicity in Kunming mouse assessed as body weight change at 50 mg/kg,po for 14 days; assay type: organism-based; conditions: in vivo, 336 h, time 14 day

In the case of `CCc1oc2ccccc2c1C(=O)c1cc(Br)c(O)c(Br)c1` [BENZBROMARONE], the Activity [1] is reported as “Non-Toxic”, the MRT inf [2] is reported as 3.48 h and the Activity [3] is reported as “Non-Toxic”. The Tmax [4] was 30 min, the half-life [5] was 107 min and the Activity [6] was “Non-Toxic”. The MRT inf [7] was 3.75 h, the Activity [8] was “Toxic” and the inhibition at 72 h, 400 µM [9] was 40.1%. The IC50 [10] was > 20 µM, the Activity [11] was “Active” and the Activity [12] was “Toxic”. The Activity [13] was “Toxic”, the Activity [14] was “Toxic” and the Activity [15] was “Non-Toxic”. For the same compound, the Activity [16] was “Toxic”, the Cmax [17] was 14700 ng/mL and the Activity [18] was “Non-Toxic”. For the same compound, the AUC(0-inf) [19] was 11100 ng·h/mL, the Activity [20] was “Non-Toxic” and the Cmax [21] was 4250 ng/mL. The AUC(0-inf) [22] was 30700 ng·h/mL and the Activity [23] was “Non-Toxic”.
